“And” between values parts separate entries of the source, which are not always exact repeats. Equal values may be shown once.
Test system: NCI-H322M multicellular tumor spheroids, viability (% test/control)
Experiment: Anticancer human tumor NCI-H322M cell line growth inhibition;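 as to viability, T/C: spheroids exposed to compound for seven days before readout; 100% = DMSO vehicle control wells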
Conditions: for viability, T/C: stronger effect = lower value
Summary of the method: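 Complex spheroids of malignant cells with endothelial cells and mesenchymal stem cells; agents alone or combined, from near clinical Cmax (or 10 microM if unknown) down in half-log steps, 0.25% DMSO final.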

[1] = curve of first compound, second compound 1 µM
[2] = curve of first compound, second compound 3.16 µM
[3] = curve of first compound, second compound 10 µM
[4] = curve of first compound, second compound 31.6 µM
[5] = curve of first compound, second compound 100 µM
[6] = second compound 1 µM, first compound 0.0949 µM
[7] = second compound 1 µM, first compound 0.3 µM
[8] = second compound 1 µM, first compound 0.949 µM
[9] = second compound 1 µM, first compound 3 µM
[10] = second compound 3.16 µM, first compound 0.0949 µM
[11] = second compound 3.16 µM, first compound 0.3 µM
[12] = second compound 3.16 µM, first compound 0.949 µM
[13] = second compound 3.16 µM, first compound 3 µM
[14] = second compound 10 µM, first compound 0.0949 µM
[15] = second compound 10 µM, first compound 0.3 µM
[16] = second compound 10 µM, first compound 0.949 µM
[17] = second compound 10 µM, first compound 3 µM
[18] = second compound 31.6 µM, first compound 0.0949 µM
[19] = second compound 31.6 µM, first compound 0.3 µM
[20] = second compound 31.6 µM, first compound 0.949 µM
[21] = second compound 31.6 µM, first compound 3 µM
[22] = second compound 100 µM, first compound 0.0949 µM
[23] = second compound 100 µM, first compound 0.3 µM
[24] = second compound 100 µM, first compound 0.949 µM
[25] = second compound 100 µM, first compound 3 µM
[26] = second compound 1 µM, first compound 0.00949 µM
[27] = second compound 1 µM, first compound 0.03 µM
[28] = second compound 3.16 µM, first compound 0.00949 µM
[29] = second compound 3.16 µM, first compound 0.03 µM
[30] = second compound 10 µM, first compound 0.00949 µM
[31] = second compound 10 µM, first compound 0.03 µM
[32] = second compound 31.6 µM, first compound 0.00949 µM
[33] = second compound 31.6 µM, first compound 0.03 µM
[34] = second compound 100 µM, first compound 0.00949 µM
[35] = second compound 100 µM, first compound 0.03 µM

For `CC1COCCN1c1cc(-c2ccnn2C)c2ccnc(-c3ccn[nH]3)c2n1` (configuration not stated) + Cn1nnc2c(C(N)=O)ncn2c1=O, the IC50 [1] was 0.128 µM, the IC50 [2] was 0.156 µM and the IC50 [3] was 0.08 µM. For the same compound, the IC50 [4] was < 0.0316 µM, the IC50 [5] was < 0.0316 µM and the viability, T/C (second compound 1 µM, first compound 0.0316 µM) was 66.3%. The viability, T/C (second compound 1 µM, first compound 0.1 µM) was 54.4%, the viability, T/C (second compound 1 µM, first compound 0.316 µM) was 43.5% and the viability, T/C (second compound 1 µM, first compound 1 µM) was 37.4%. The viability, T/C (second compound 1 µM, first compound 3.16 µM) was 41.5%, the viability, T/C (second compound 1 µM, first compound 10 µM) was 48.5% and the viability, T/C (second compound 3.16 µM, first compound 0.0316 µM) was 63%. It also gave a viability, T/C (second compound 3.16 µM, first compound 0.1 µM) of 55.1%, a viability, T/C (second compound 3.16 µM, first compound 0.316 µM) of 42.3% and a viability, T/C (second compound 3.16 µM, first compound 1 µM) of 34.1%. For the same compound, the viability, T/C (second compound 3.16 µM, first compound 3.16 µM) was 37.7%, the viability, T/C (second compound 3.16 µM, first compound 10 µM) was 40.8% and the viability, T/C (second compound 10 µM, first compound 0.0316 µM) was 72.2%. The viability, T/C (second compound 10 µM, first compound 0.1 µM) was 44.5%, the viability, T/C (second compound 10 µM, first compound 0.316 µM) was 45.4% and the viability, T/C (second compound 10 µM, first compound 1 µM) was 37.3%. It also gave a viability, T/C (second compound 10 µM, first compound 3.16 µM) of 40.6%, a viability, T/C (second compound 10 µM, first compound 10 µM) of 50% and a viability, T/C (second compound 31.6 µM, first compound 0.0316 µM) of 56.1%. The viability, T/C (second compound 31.6 µM, first compound 0.1 µM) was 43%, the viability, T/C (second compound 31.6 µM, first compound 0.316 µM) was 37.1% and the viability, T/C (second compound 31.6 µM, first compound 1 µM) was 36.6%. For the same compound, the viability, T/C (second compound 31.6 µM, first compound 3.16 µM) was 35.9%, the viability, T/C (second compound 31.6 µM, first compound 10 µM) was 41.4% and the viability, T/C (second compound 100 µM, first compound 0.0316 µM) was 41.1%. For the same compound, the viability, T/C (second compound 100 µM, first compound 0.1 µM) was 34.8%, the viability, T/C (second compound 100 µM, first compound 0.316 µM) was 31.7% and the viability, T/C (second compound 100 µM, first compound 1 µM) was 32%. For the same compound, the viability, T/C (second compound 100 µM, first compound 3.16 µM) was 35.4% and the viability, T/C (second compound 100 µM, first compound 10 µM) was 40.6%.
`CNCc1ccc(-c2cc(-c3nc(-c4ccc(S(=O)(=O)C(C)C)cc4)cnc3N)on2)cc1` was tested, and the viability, T/C (compound 0.00949 µM) was 101% and 98.9% and 108%, the viability, T/C (compound 0.03 µM) was 92% and 104% and 77.6% and the viability, T/C (compound 0.0949 µM) was 86.2% and 90.6% and 82.5%. The viability, T/C (compound 0.3 µM) was 75.3% and 82.6% and 88.2%, the viability, T/C (compound 0.949 µM) was 93% and 95.4% and 77.4% and the viability, T/C (compound 3 µM) was 90.5% and 94.3% and 74.9%. The IC50 (curve of compound) was > 3 µM.
With `O=C(c1cc(Cc2n[nH]c(=O)c3ccccc23)ccc1F)N1CCN(C(=O)C2CC2)CC1` + Cn1nnc2c(C(N)=O)ncn2c1=O the IC50 [1] was > 30 µM, the IC50 [2] was > 30 µM and the IC50 [3] was > 30 µM. The IC50 [4] was > 30 µM, the IC50 [5] was > 30 µM and the viability, T/C [6] was 84.3%. For the same compound, the viability, T/C [7] was 93.5%, the viability, T/C [8] was 88.7% and the viability, T/C [9] was 92.5%. It also gave a viability, T/C (second compound 1 µM, first compound 9.49 µM) of 78%, a viability, T/C (second compound 1 µM, first compound 30 µM) of 94% and a viability, T/C [10] of 86.1%. It also gave a viability, T/C [11] of 81.5%, a viability, T/C [12] of 80.1% and a viability, T/C [13] of 79.9%. The viability, T/C (second compound 3.16 µM, first compound 9.49 µM) was 88.2%, the viability, T/C (second compound 3.16 µM, first compound 30 µM) was 84.6% and the viability, T/C [14] was 85.4%. For the same compound, the viability, T/C [15] was 90.7%, the viability, T/C [16] was 85.7% and the viability, T/C [17] was 78.1%. It also gave a viability, T/C (second compound 10 µM, first compound 9.49 µM) of 80%, a viability, T/C (second compound 10 µM, first compound 30 µM) of 73.5% and a viability, T/C [18] of 105%. For the same compound, the viability, T/C [19] was 87.5%, the viability, T/C [20] was 86.1% and the viability, T/C [21] was 93.1%. It also gave a viability, T/C (second compound 31.6 µM, first compound 9.49 µM) of 84.5%, a viability, T/C (second compound 31.6 µM, first compound 30 µM) of 93.6% and a viability, T/C [22] of 76.8%. For the same compound, the viability, T/C [23] was 82.4%, the viability, T/C [24] was 96.4% and the viability, T/C [25] was 86.8%. The viability, T/C (second compound 100 µM, first compound 9.49 µM) was 75.2% and the viability, T/C (second compound 100 µM, first compound 30 µM) was 71.4%.
With `Cn1ncnc1[C@H]1c2n[nH]c(=O)c3cc(F)cc(c23)N[C@@H]1c1ccc(F)cc1` + Cn1nnc2c(C(N)=O)ncn2c1=O the IC50 [1] was > 3 µM, the IC50 [2] was > 3 µM and the IC50 [3] was > 3 µM. For the same compound, the IC50 [4] was > 3 µM, the IC50 [5] was > 3 µM and the viability, T/C [26] was 89.4%. The viability, T/C [27] was 79.4%, the viability, T/C [6] was 87.8% and the viability, T/C [7] was 81.2%. It also gave a viability, T/C [8] of 88.8%, a viability, T/C [9] of 70% and a viability, T/C [28] of 77.9%. For the same compound, the viability, T/C [29] was 113%, the viability, T/C [10] was 84.3% and the viability, T/C [11] was 74.3%. The viability, T/C [12] was 81.5%, the viability, T/C [13] was 67.8% and the viability, T/C [30] was 83.1%. It also gave a viability, T/C [31] of 71%, a viability, T/C [14] of 73.8% and a viability, T/C [15] of 76.2%. It also gave a viability, T/C [16] of 77.1%, a viability, T/C [17] of 59.3% and a viability, T/C [32] of 90.3%. It also gave a viability, T/C [33] of 74.1%, a viability, T/C [18] of 78.8% and a viability, T/C [19] of 76.5%. It also gave a viability, T/C [20] of 70.9%, a viability, T/C [21] of 69.3% and a viability, T/C [34] of 92.2%. It also gave a viability, T/C [35] of 68.8%, a viability, T/C [22] of 64.5% and a viability, T/C [23] of 68.9%. For the same compound, the viability, T/C [24] was 59.5% and the viability, T/C [25] was 57.7%.
For `CNCc1ccc(-c2cc(-c3nc(-c4ccc(S(=O)(=O)C(C)C)cc4)cnc3N)on2)cc1` + Cn1nnc2c(C(N)=O)ncn2c1=O, the IC50 [1] was > 3 µM, the IC50 [2] was > 3 µM and the IC50 [3] was > 3 µM. The IC50 [4] was > 3 µM, the IC50 [5] was > 3 µM and the viability, T/C [26] was 100%. It also gave a viability, T/C [27] of 104%, a viability, T/C [6] of 82.1% and a viability, T/C [7] of 84.1%. It also gave a viability, T/C [8] of 75.7%, a viability, T/C [9] of 83.3% and a viability, T/C [28] of 79.5%. It also gave a viability, T/C [29] of 76.2%, a viability, T/C [10] of 75% and a viability, T/C [11] of 86.9%. It also gave a viability, T/C [12] of 81.4%, a viability, T/C [13] of 87.6% and a viability, T/C [30] of 78.7%. For the same compound, the viability, T/C [31] was 89%, the viability, T/C [14] was 77.6% and the viability, T/C [15] was 99.2%. The viability, T/C [16] was 81.1%, the viability, T/C [17] was 75.4% and the viability, T/C [32] was 110%. The viability, T/C [33] was 76.2%, the viability, T/C [18] was 78.3% and the viability, T/C [19] was 76.3%. The viability, T/C [20] was 68.4%, the viability, T/C [21] was 66% and the viability, T/C [34] was 95.6%. The viability, T/C [35] was 87%, the viability, T/C [22] was 81.7% and the viability, T/C [23] was 71%. It also gave a viability, T/C [24] of 70.1% and a viability, T/C [25] of 58.3%.

Source: PubChem BioAssay AID1845211 (Molecular Pharmacology Branch, DTP, NCI, 2023)
